{
  "source": "patent US20140235630A1",
  "about": "“COMPOSITIONS AND METHODS FOR THE TREATMENT OF PROLIFERATIVE DISEASES” (Beth Israel Deaconess Medical Center, Inc., priority 2011, published 2014)",
  "test_system": "HCC1937 cells",
  "experiment": "DNA damage response immunoblots with or without ionizing radiation (10 Gy)",
  "assay_type": "cell-based, human",
  "method": "FIG. 5A are immunoblots showing the effects of Compound A, ATM inhibitor KU-55933, and their combination on the DNA damage response. HCC1937 were treated for 18 hours with Compound A at 2.5 μM, KU55933 at 10 μM, or their combination, subjected to ionizing irradiation with 10 Gy or mock, lysed 6 hours later, and subjected to immunoblotting. […] Immunoblots were performed using the Nupage System (Invitrogen). The protein concentration was determined using Bradford reagent (Biorad). A total of 20 μg of protein were loaded, except for PAR, Phospho ATM and Phospho DNA-PK/PRKDC western blots, where 40 μg were loaded. Tumor tissue lysates were prepared similarly with the exception of tissue homogenization by using an electric homogenizer for 30 secs after addition of the lysis buffer. Primary antibodies used for western blotting were total AKT (9272), Cleaved […] 3 (9661), total ERK (4695), Phospho AKT Ser473 (4058), Phospho ERK Thr202/Tyr204 (9106), Phospho-Histone H2AX Ser139 (2577), PTEN (9559) from Cell Signaling. Phospho ATM […] (2152-1), Phospho DNA-PK/PRKDC […] (3892-1) from Epitomics, Inc. CD31 (ab28364), Actin (ab6276), INPP4B (ab81269) from Abcam; pADPr (sc56198) from Santacruz Biotechnology; and Ki-67 (RM-9106) was purchased from Thermo Scientific.",
  "data": [
    {"molecule": "Nc1cc(C(F)(F)F)c(-c2cc(N3CCOCC3)nc(N3CCOCC3)n2)cn1", "note": "[Compound A, 5-(2,6-dimorpholinopyrimidin-4-yl)-4-(trifluoromethyl)pyridin-2-amine]", "values": [
      {"measurement": "H2AX phosphorylation in response to ionizing radiation", "setting": "18 hours pre-treatment, 10 Gy, lysed 6 hours later", "result": "prominent augmentation"},
      {"measurement": "auto-phosphorylation of DNA-PK", "setting": "Compound A 2.5 μM, 18 hours", "result": "strong increase"},
      {"measurement": "PAR accumulation", "setting": "Compound A 2.5 μM, KU55933 10 μM", "result": "increased"},
      {"measurement": "Rad51 accumulation in response to ionizing radiation", "setting": "pre-treatment, 10 Gy", "result": "failure to increase Rad51"}
    ]}
  ]
}
